From US7241902B2, “Allylmercaptocaptopril compounds and uses thereof” (Yeda Research and Development Co. Ltd., priority 2001, dated 2007)

Assays:
[1] = test system: Sprague-Dawley rats fed fructose-rich diet; assay: Fructose-rich diet rat model (Reaven's model): blood pressure, serum triglycerides, insulin, body weight; assay type: in vivo; settings: for effect on serum insulin levels: FIG. 5
Description: In the present study, the effects of CPSSA and captopril on blood pressure, as well as serum levels of triglycerides and insulin, were compared. RESULTS
Model Sprague-Dawley male rates, five rats/group, 220–240 g body weight, were fed with a fructose-rich diet for three weeks, followed by two weeks of treatment with either CPSSA or captopril predissolved in the drinking water in doses of CPSSA of 40 and 57 mg/kg and 80 mg/kg captopril, together with the fructose-rich diet. The control group was fed only the fructose-rich diet. Measurements of body weight, blood pressure, serum levels of triglycerides and insulin were conducted at 0, 3, and 5 weeks into the treatment.

papain = biological target: T1, papain (Carica papaya, UniProt P00784); assay: SH modification of papain (residual enzyme activity, benzoyl arginine-p-nitro anilide hydrolysis); assay type: biochemical
T1 sequence (P00784 134-345): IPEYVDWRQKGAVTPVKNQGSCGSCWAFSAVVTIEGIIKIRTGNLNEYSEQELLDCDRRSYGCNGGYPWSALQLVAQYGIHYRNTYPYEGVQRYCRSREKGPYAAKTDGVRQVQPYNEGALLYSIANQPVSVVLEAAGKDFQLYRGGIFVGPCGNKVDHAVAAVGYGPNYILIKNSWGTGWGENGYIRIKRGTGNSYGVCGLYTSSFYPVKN
Description: CPSSA (0–5 mM) modification of activated and gel-filtered papain was conducted at room temperature in 50 mM sodium acetate, 2 mM EDTA pH 6.1. The inhibited papain was reactivated with 5 mM reduced glutathione.
Activated papain was mixed with various concentrations of CPSSA for 10 minutes at room temperature in 50 mM sodium acetate, 2 mM EDTA buffer, pH 6.5. The residual enzyme activity was measured by monitoring the rate of hydrolysis of the substrate benzoyl arginine-p-nitro anilide at 382 nm.

[2] = biological target: T2, angiotensin converting enzyme (Homo sapiens, UniProt P12821); assay: Angiotensin converting enzyme activity in vitro in reference serum (Carmel et al 1979); assay type: biochemical; settings: serial dilutions added to a reference serum; FIG. 2
T2 construct: from tissue
Description: The activity of angiotensin-converting enzyme was assayed according to Carmel et al (1979).
In order to determine if CPSSA reacts in a similar way to captopril, which inhibits the activity of angiotensin converting enzyme, serial dilutions of CPSSA were prepared.

[3] = two weeks in drinking water, CPSSA 40 and 57 mg/kg, captopril 80 mg/kg

T2 sequence (P12821 30-1232 limits assumed): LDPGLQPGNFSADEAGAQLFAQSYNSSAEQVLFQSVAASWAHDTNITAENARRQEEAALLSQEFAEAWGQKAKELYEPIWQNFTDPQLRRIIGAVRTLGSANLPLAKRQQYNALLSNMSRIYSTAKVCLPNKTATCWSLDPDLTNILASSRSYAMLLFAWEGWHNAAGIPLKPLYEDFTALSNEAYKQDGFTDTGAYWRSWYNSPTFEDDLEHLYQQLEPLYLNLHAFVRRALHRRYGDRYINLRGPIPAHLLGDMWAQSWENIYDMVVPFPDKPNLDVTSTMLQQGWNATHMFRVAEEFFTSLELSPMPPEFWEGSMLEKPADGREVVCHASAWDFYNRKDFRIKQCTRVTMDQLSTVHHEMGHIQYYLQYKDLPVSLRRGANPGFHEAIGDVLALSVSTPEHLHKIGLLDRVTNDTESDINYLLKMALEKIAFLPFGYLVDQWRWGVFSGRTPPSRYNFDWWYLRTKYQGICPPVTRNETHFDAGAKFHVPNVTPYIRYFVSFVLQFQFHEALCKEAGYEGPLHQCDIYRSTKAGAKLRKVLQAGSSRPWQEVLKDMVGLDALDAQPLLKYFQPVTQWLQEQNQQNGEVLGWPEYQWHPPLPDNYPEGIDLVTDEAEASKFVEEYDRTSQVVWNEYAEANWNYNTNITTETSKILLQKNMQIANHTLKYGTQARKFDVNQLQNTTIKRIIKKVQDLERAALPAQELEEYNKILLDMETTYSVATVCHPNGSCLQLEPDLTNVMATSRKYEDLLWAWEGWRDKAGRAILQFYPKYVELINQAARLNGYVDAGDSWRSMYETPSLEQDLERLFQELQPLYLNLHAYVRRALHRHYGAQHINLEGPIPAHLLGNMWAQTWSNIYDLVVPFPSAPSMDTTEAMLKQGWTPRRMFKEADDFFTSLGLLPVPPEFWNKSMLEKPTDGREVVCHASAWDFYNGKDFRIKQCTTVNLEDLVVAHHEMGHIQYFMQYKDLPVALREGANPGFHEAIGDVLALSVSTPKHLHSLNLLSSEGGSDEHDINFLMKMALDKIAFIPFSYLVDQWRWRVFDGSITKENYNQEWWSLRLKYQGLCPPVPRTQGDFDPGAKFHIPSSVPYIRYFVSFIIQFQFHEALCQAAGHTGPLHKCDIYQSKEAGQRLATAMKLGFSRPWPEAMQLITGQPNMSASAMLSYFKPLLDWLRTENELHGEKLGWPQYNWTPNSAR

SMILES	activity in decreasing levels of triglycerides compared with captopril ([1]; CPSSA 40 and 57 mg/kg vs captopril 80 mg/kg, FIG. 4)	effect on body weight [1, 3]	effect on blood pressure ([1]; two weeks in drinking water, CPSSA 40 and 57 mg/kg, captopril 80 mg/kg, FIG. 3)	effect on serum levels of triglycerides ([1]; two weeks in drinking water, CPSSA 40 and 57 mg/kg, captopril 80 mg/kg, FIG. 4)	effect on serum insulin levels [1, 3]	reactivation of inactivated papain (papain; 5 mM reduced glutathione)	papain enzyme activity after incubation (papain; 10 minutes at room temperature, 50 mM sodium acetate, 2 mM EDTA, CPSSA 0-5 mM, FIG. 1)	degree of inhibition of papain (papain; various concentrations of CPSSA, FIG. 1)	ACE inhibition profile compared with captopril [2]	inhibition of angiotensin converting enzyme activity [2]
C=CCSSC[C@H](C)C(=O)N1CCC[C@H]1C(=O)O [CPSSA, S-allylmercaptocaptopril]	more active than captopril	No effects on body weight	significantly decreased blood pressure	reduced the serum levels of triglycerides	decreased serum insulin levels to normal values	could be restored by reduced glutathione	significant decrease of enzyme activity	concentration dependent	essentially does not differ from the inhibition profile obtained with captopril	concentration dependant
C[C@H](CS)C(=O)N1CCC[C@H]1C(=O)O [captopril, D-3-mercapto-2-methylpropanoyl-L-proline]		No effects on body weight			decreased serum insulin levels to normal values					
